Consider 23 compounds from US8354441B2, “Oxazoline derivatives” (Hoffmann-La Roche Inc., priority 2009, dated 2013).

For one assay, the target named is T1, mouse TAAR1 (Mus musculus, UniProt Q923Y8).
T1 construct: expressed in transfected cells; host or cells: HEK293 (ATCC # CRL-1573), stably transfected with pIRESneo2 expression plasmid
As to the kind of experiment: TAAR1 radioligand binding with [3H]-rac-2-(1,2,3,4-tetrahydro-1-naphthyl)-2-imidazoline, membranes of stably transfected HEK293 cells. To be noted: first value of the cell, read-out: Ki (μM) mouse/rat: mouse. The method, boiled down: (§1)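 Competition binding: competitors spanning 10 pM–30 μM displace 60 nM [3H]-rac-2-(1,2,3,4-tetrahydro-1-naphthyl)-2-imidazoline from stably transfected HEK293 membranes (mouse or rat receptor), 30 min, 4 °C, pH 7.0 buffer with Mg2+/Ca2+. Bound label counted after GF/C filtration; 10 μM unlabelled ligand defines non-specific binding.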

The next assay concerns the target T2, rat TAAR1 (Rattus norvegicus, UniProt Q923Y9).
T2 construct: expressed in transfected cells; host or cells: HEK293 (ATCC # CRL-1573), stably transfected with pIRESneo2 expression plasmid
Described as above. To be noted: second value of the cell, read-out: Ki (μM) mouse/rat: rat. In outline:
as §1

T1 sequence (Q923Y8 whole entry): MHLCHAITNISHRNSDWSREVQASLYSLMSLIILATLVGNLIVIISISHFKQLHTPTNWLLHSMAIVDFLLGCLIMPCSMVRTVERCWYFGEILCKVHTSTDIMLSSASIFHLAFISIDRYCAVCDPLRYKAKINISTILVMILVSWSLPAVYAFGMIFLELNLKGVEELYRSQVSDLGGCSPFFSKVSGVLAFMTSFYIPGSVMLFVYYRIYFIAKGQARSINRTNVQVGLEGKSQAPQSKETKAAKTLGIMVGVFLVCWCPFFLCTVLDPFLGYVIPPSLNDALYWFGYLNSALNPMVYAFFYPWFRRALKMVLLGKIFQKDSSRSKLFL
T2 sequence (Q923Y9 whole entry): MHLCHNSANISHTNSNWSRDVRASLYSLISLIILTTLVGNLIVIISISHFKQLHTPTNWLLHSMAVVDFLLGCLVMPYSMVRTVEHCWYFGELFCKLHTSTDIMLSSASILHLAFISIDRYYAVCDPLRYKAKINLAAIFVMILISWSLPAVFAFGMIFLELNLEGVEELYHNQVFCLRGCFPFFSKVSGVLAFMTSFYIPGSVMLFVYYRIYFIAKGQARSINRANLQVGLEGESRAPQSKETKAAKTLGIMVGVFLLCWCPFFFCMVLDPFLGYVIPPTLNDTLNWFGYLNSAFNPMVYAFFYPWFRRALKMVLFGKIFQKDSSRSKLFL

For the compound `NC1=N[C@@H](CCc2ccc(NC(=O)C3CC3)cc2)CO1` [Example 46, Cyclopropanecarboxylic acid {4-[2-((S)-2-amino-4,5-dihydro-oxazol-4-yl)-ethyl]-phenyl}-amide], the Ki was found to be 0.0042 µM at mouse TAAR1 and 0.0018 µM on rat TAAR1.

Take `NC1=N[C@@H](CCc2ccc(NC(=O)c3cccc(F)n3)cc2)CO1` [Example 88, 6-Fluoro-pyridine-2-carboxylic acid {4-[2-((S)-2-amino-4,5-dihydro-oxazol-4-yl)-ethyl]-phenyl}-amide]: the Ki at mouse TAAR1 is 0.0097 µM; on rat TAAR1, 0.0014 µM.

As to `COC(C(=O)Nc1ccc(CC[C@H]2COC(N)=N2)cc1)c1ccc(Cl)cc1` (stereo partly drawn) [Example 78, N-{4-[2-((S)-2-Amino-4,5-dihydro-oxazol-4-yl)-ethyl]-phenyl}-2-(4-chloro-phenyl)-2-methoxy-acetamide], the Ki was determined as 0.0048 µM on mouse TAAR1 and 0.0031 µM on rat TAAR1.

For the compound `NC1=N[C@@H](CCc2ccc(NC(=O)c3ccc(-n4cccn4)nc3)cc2)CO1` [Example 85, N-{4-[2-((S)-2-Amino-4,5-dihydro-oxazol-4-yl)-ethyl]-phenyl}-6-pyrazol-1-yl-nicotinamide], the Ki at mouse TAAR1 was 0.0012 µM; on rat TAAR1, 0.0015 µM.

Regarding `NC1=N[C@@H](CCc2ccc(NC(=O)c3ccc(OCC(F)(F)F)nc3)cc2)CO1` [Example 113, N-{4-[2-((S)-2-Amino-4,5-dihydro-oxazol-4-yl)-ethyl]-phenyl}-6-(2,2,2-trifluoro-ethoxy)-nicotinamide], the Ki on mouse TAAR1 is 0.0006 µM; at rat TAAR1 it was 0.001 µM.

Turning to `N#Cc1ccc(C(=O)Nc2ccc(CC[C@H]3COC(N)=N3)cc2)cc1` [Example 59, N-{4-[2-((S)-2-Amino-4,5-dihydro-oxazol-4-yl)-ethyl]-phenyl}-4-cyano-benzamide], the Ki at mouse TAAR1 and at rat TAAR1 was 0.0022 µM each time.

On to `NC1=N[C@@H](CCc2ccc(NC(=O)c3nccc4ccccc34)cc2)CO1` [Example 93, Isoquinoline-1-carboxylic acid {4-[2-((S)-2-amino-4,5-dihydro-oxazol-4-yl)-ethyl]-phenyl}-amide], for which the Ki on mouse TAAR1 was found to be 0.0016 µM; at rat TAAR1, 0.0003 µM.

For the compound `CCc1ccc(C(=O)Nc2ccc(CC[C@H]3COC(N)=N3)cc2)nc1` [Example 178, (S)-N-(4-(2-(2-Amino-4,5-dihydrooxazol-4-yl)ethyl)phenyl)-5-ethylpicolinamide], the Ki on mouse TAAR1 and at rat TAAR1 was 0.0004 µM throughout.

`NC1=N[C@@H](CCc2ccc(NC(=O)Nc3ccc(Cl)cn3)cc2)CO1` [Example 35, 1-{4-[2-((S)-2-Amino-4,5-dihydro-oxazol-4-yl)-ethyl]-phenyl}-3-(5-chloro-pyridin-2-yl)-urea]: the results for the Ki at mouse TAAR1 and at rat TAAR1 were 0.0001 µM and 0.0003 µM, respectively.

As to `C[C@@H]1OC(N)=N[C@H]1CCc1ccc(NC(=O)c2ccc(Cl)cc2)cc1` [Example 205, N-(4-(2-((4S,5S)-2-Amino-5-methyl-4,5-dihydrooxazol-4-yl)ethyl)phenyl)-4-chlorobenzamide], the Ki on mouse TAAR1 stood at 0.0007 µM; on rat TAAR1 it was 0.0005 µM.

Consider `CC(C(=O)Nc1ccc(CC[C@H]2COC(N)=N2)cc1)c1cccc(OC(F)(F)F)c1` (stereo partly drawn) [Example 82, N-{4-[2-((S)-2-Amino-4,5-dihydro-oxazol-4-yl)-ethyl]-phenyl}-2-(3-trifluoromethoxy-phenyl)-propionamide], for which the Ki was found to be 0.0005 µM on mouse TAAR1 and 0.0017 µM on rat TAAR1.

For the compound `NC1=N[C@@H](CCc2ccc(NC(=O)c3cccnc3F)cc2)CO1` [Example 99, (S)-N-(4-(2-(2-amino-4,5-dihydrooxazol-4-yl)ethyl)phenyl)-2-fluoronicotinamide], the Ki at mouse TAAR1 turned out to be 0.0081 µM; at rat TAAR1, 0.0018 µM.

Turning to `CCOc1cnc(C(=O)Nc2ccc(CC[C@@H]3N=C(N)O[C@H]3C)cc2)cn1` [Example 218, 5-Ethoxy-pyrazine-2-carboxylic acid {4-[2-((4S,5S)-2-amino-5-methyl-4,5-dihydro-oxazol-4-yl)-ethyl]-phenyl}-amide], the Ki on mouse TAAR1 was 0.0014 µM; at rat TAAR1, 0.0035 µM.

Take `NC1=N[C@@H](CCc2ccc(NC(=O)c3ccnc(-c4ccncc4)c3)cc2)CO1` [Example 199, (S)-N-(4-(2-(2-Amino-4,5-dihydrooxazol-4-yl)ethyl)phenyl)-2,4′-bipyridine-4-carboxamide]: the results for the Ki at mouse TAAR1 and at rat TAAR1 were 0.0027 µM and 0.0037 µM, respectively.

As for `CC(C(=O)Nc1ccc(CC[C@H]2COC(N)=N2)cc1)c1ccc(Cl)cc1` (stereo partly drawn) [Example 58, N-{4-[2-((S)-2-Amino-4,5-dihydro-oxazol-4-yl)-ethyl]-phenyl}-2-(4-chloro-phenyl)-propionamide], the figures for the Ki at mouse TAAR1 and at rat TAAR1 were 0.0014 µM and 0.0007 µM, respectively.

In the case of `NC1=N[C@@H](CCc2ccc(NC(=O)c3ccnc(Cl)c3F)cc2)CO1` [Example 174, (S)-N-(4-(2-(2-Amino-4,5-dihydrooxazol-4-yl)ethyl)phenyl)-2-chloro-3-fluoroisonicotinamide], the Ki at mouse TAAR1 worked out at 0.0035 µM; on rat TAAR1, 0.0016 µM.

As for `NC1=N[C@@H](CCc2ccc(NC(=O)c3ncc(F)cc3F)cc2)CO1` [Example 87, 3,5-Difluoro-pyridine-2-carboxylic acid {4-[2-((S)-2-amino-4,5-dihydro-oxazol-4-yl)-ethyl]-phenyl}-amide], the Ki turned out to be 0.0057 µM on mouse TAAR1 and 0.0018 µM at rat TAAR1.

For `NC1=N[C@@H](CCc2ccc(NC(=O)C(F)(F)c3ccc(Cl)c(Cl)c3)cc2)CO1` [Example 125, (S)-N-(4-(2-(2-Amino-4,5-dihydrooxazol-4-yl)ethyl)phenyl)-2-(3,4-dichlorophenyl)-2,2-difluoroacetamide], the Ki at mouse TAAR1 stood at 0.0006 µM; on rat TAAR1, 0.0011 µM.

On to `NC1=N[C@@H](CCc2ccc(NS(=O)(=O)c3ccc(Cl)c(Cl)c3)cc2)CO1` [Example 76, N-{4-[2-((S)-2-Amino-4,5-dihydro-oxazol-4-yl)-ethyl]-phenyl}-3,4-dichloro-benzenesulfonamide], for which the values for the Ki on mouse TAAR1 and at rat TAAR1 were 0.009 µM and 0.0009 µM, respectively.

For `NC1=N[C@@H](CCc2ccc(NC(=O)c3ccc(C(F)(F)F)nc3)cc2)CO1` [Example 55, N-{4-[2-((S)-2-Amino-4,5-dihydro-oxazol-4-yl)-ethyl]-phenyl}-6-trifluoromethyl-nicotinamide], the Ki on mouse TAAR1 is 0.0025 µM; at rat TAAR1, 0.003 µM.

Take `Cc1ocnc1C(=O)Nc1ccc(CC[C@H]2COC(N)=N2)cc1` [Example 191, (S)-N-(4-(2-(2-Amino-4,5-dihydrooxazol-4-yl)ethyl)phenyl)-5-methyloxazole-4-carboxamide]: the Ki on mouse TAAR1 amounted to 0.0042 µM; at rat TAAR1, 0.0021 µM.

`Cc1cc(Cl)cc(C(=O)Nc2ccc(CC[C@H]3COC(N)=N3)cc2)n1` [Example 156, (S)-N-(4-(2-(2-Amino-4,5-dihydrooxazol-4-yl)ethyl)phenyl)-4-chloro-6-methylpicolinamide]: the Ki at mouse TAAR1 is 0.0006 µM; at rat TAAR1, 0.0063 µM.

With `NC1=N[C@@H](CCc2ccc(NC(=O)c3ccc(Br)cn3)cc2)CO1` [Example 92, 5-Bromo-pyridine-2-carboxylic acid {4-[2-((S)-2-amino-4,5-dihydro-oxazol-4-yl)-ethyl]-phenyl}-amide], the values for the Ki at mouse TAAR1 and at rat TAAR1 were 0.0002 µM and 0.0004 µM, respectively.
